Drawing on patent US20240262806A1, “INHIBITORS OF NLRP3” (PTC THERAPEUTICS, INC., priority 2021, published 2024), this text covers IC50 for 61 compounds.

Bounds are passed on as bounds.

One assay concerns NLRP3 inflammasome. Put plainly: IL-1β Secretion Assay (NLRP3-dependent IL-1β secretion in PMA-differentiated THP-1 cells, nigericin activation, HTRF). The class given is cell-based. The note with it: Homo sapiens, THP-1, THP-1 cells, 100 ng/mL PMA 24 h, compound 20 h, 2.5 μM Nigericin 3 h; read-out: IC50 IL-1β Inhibition. The procedure, abridged: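 PMA-differentiated THP-1 cells in RPMI with 5% FBS were treated with compounds at 7 concentrations in threefold DMSO dilutions. NLRP3 was activated with nigericin and secreted IL-1β measured by HTRF. IC50 from a logistic fit of percent inhibition versus concentration.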
Take `CN1CCC[C@@H](Nc2nnc(-c3ccc(C(F)(F)F)cc3C(N)=O)c3ccncc23)C1` [Compound I-182]: the IC50 lay within 0.01 to 0.1 µM. The same measure, in the same setting: with `CN1CCCCC(Nc2nnc(-c3ccc(C(F)(F)F)cc3O)c3cnccc23)C1` (stereo not shown) [Compound I-185] the figure was 0.01 to 0.1 µM; with `CN1CCCC[C@H](Nc2nnc(-c3ccc(C(F)(F)F)cc3O)c3ccncc23)C1` [Compound I-186], 0.01 to 0.1 µM. As for `CN1CCCC[C@@H](Nc2nnc(-c3ccc(C(F)(F)F)cc3O)c3ccncc23)C1` [Compound I-187], the 50% inhibitory concentration (IC50) is less than 0.001 µM. `CN1CCC[C@@H](Nc2nnc(-c3ccc(C(F)(F)F)cc3OC3COC3)c3cnccc23)C1` [Compound I-188]: the IC50 fell in the range of 0.01 to 0.1 µM. On the same count and under the same terms, in the case of `CN1CCC[C@@H](Nc2nnc(-c3ccc(C(F)(F)F)cc3-c3cnn(C)c3)c3cnccc23)C1` [Compound I-189] it was 0.01 to 0.1 µM. Take `CN1CCC[C@@H](Nc2nnc(-c3ccc(C(F)(F)F)cc3CO)c3ccncc23)C1` [Compound I-190]: the IC50 is 0.01 to 0.1 µM. Consider `CN1CCC[C@@H](Nc2nnc(-c3ccc(OC(F)(F)F)cc3OC(F)F)c3ccncc23)C1` [Compound I-191], for which the 50% inhibitory concentration (IC50) was 0.001 to 0.01 µM.

As for `CN1CCC[C@@H](Nc2nnc(-c3ccc(C(F)(F)F)cc3S(C)(=O)=O)c3ccncc23)C1` [Compound I-192], the IC50 was in the range of 0.01 to 0.1 µM.

With `CN1CCC[C@@H](Nc2nnc(-c3ccc(C(F)(F)F)cc3-c3cn[nH]c3)c3ccncc23)C1` [Compound I-193], the IC50 was 0.01 to 0.1 µM. The same measure, in the same setting: in the case of `CN1CCC[C@@H](Nc2nnc(-c3ccc(C(F)(F)F)cc3C3CC3)c3ccncc23)C1` [Compound I-194, (R)-1-(2-Cyclopropyl-4-(trifluoromethyl)phenyl)-N-(1-methylpiperidin-3-yl)pyrido[3,4-d]pyridazin-4-amine] it was 0.001 to 0.01 µM. Still for that read-out and setting: in the case of `Cc1cnc(-c2nnc(N[C@@H]3CCCN(C)C3)c3cnccc23)c(O)c1` [Compound I-195] it was 0.001 to 0.01 µM. Same read-out and setting: with `CN1CCC[C@@H](Nc2nnc(-c3c(O)cc(C4CC4)cc3F)c3ccncc23)C1` [Compound I-196] the figure was less than 0.001 µM; with `CN1CCC[C@@H](Nc2nnc(-c3c(O)cc(C(F)(F)F)cc3F)c3ccncc23)C1` [Compound I-197], less than 0.001 µM. As to `Cc1cc(Cl)cc(F)c1-c1nnc(N[C@@H]2CCCN(C)C2)c2cnccc12` [Compound I-198], the IC50 was 0.01 to 0.1 µM. In the case of `COc1cc(C(F)(F)F)ccc1-c1nnc(N[C@H]2CN3CCC2CC3)c2cnccc12` [Compound I-199], the IC50 is 0.01 to 0.1 µM.

In the case of `CN1CCC[C@@H](Nc2nnc(-c3ccc(-c4ncccn4)cc3O)c3ccncc23)C1` [Compound I-200], the IC50 lay within 0.001 to 0.01 µM. In the case of `COc1cc(C(F)(F)F)ccc1-c1nnc(N2CCC(N(C)C)CC2)c2cnccc12` [Compound I-201], the IC50 is 0.01 to 0.1 µM. The same measure, in the same setting: in the case of `CN1CCC[C@@H](Nc2nnc(-c3ccc(C(F)(F)F)cc3-c3ccccc3)c3ccncc23)C1` [Compound I-202] it was 0.01 to 0.1 µM; in that of `CN(C)CC1CCN(c2nnc(-c3ccc(C(F)(F)F)cc3O)c3ccccc23)C1` (stereo not shown) [Compound I-203], 0.01 to 0.1 µM; in that of `Cc1cc(C)c(-c2nnc(N[C@@H]3CCCN(C)C3)c3cnccc23)c(C)c1` [Compound I-205], 0.001 to 0.01 µM. On to `OCCN1CCC[C@@H](Nc2nnc(-c3ccc(C(F)(F)F)cc3OC(F)F)c3ccncc23)C1` [Compound I-206, 2-[(3R)-3-[[1-[2-(Difluoromethoxy)-4-(trifluoromethyl)phenyl]pyrido[3,4-d]pyridazin-4-yl]amino]-1-piperidyl]ethanol], for which the IC50 is less than 0.001 µM.

As to `CC(C)c1ccc(-c2nnc(N[C@@H]3CCCN(C)C3)c3cnccc23)c(C(C)C)c1` [Compound I-207], the IC50 lay within 0.001 to 0.01 µM. With `COc1c(C2CC2)ccc(F)c1-c1nnc(N[C@@H]2CCCN(C)C2)c2cnccc12` [Compound I-208], the IC50 fell in the range of 0.01 to 0.1 µM. Still for that read-out and setting: in the case of `CN1CCC[C@@H](Nc2nnc(-c3c(F)ccc(C4CC4)c3O)c3ccncc23)C1` [Compound I-210] it was 0.01 to 0.1 µM.

Regarding `CN1CCC(Nc2nnc(-c3ccc(C(F)(F)F)cc3O)c3ccncc23)CC12CC2` (stereo not shown) [Compound I-212], the half-maximal inhibitory concentration (IC50) lay in the range of 0.01 to 0.1 µM. The same measure, in the same setting: in the case of `COc1cc(C(F)(F)F)ccc1-c1nnc(NC2CC3CCC(C3)N2C)c2cnccc12` (stereo not shown) [Compound I-213] it was 0.1 to 0.3 µM; in that of `CN1CCC[C@@H](Nc2nnc(-c3ccc(C(F)(F)F)cc3CC(F)(F)F)c3ccncc23)C1` [Compound I-214, (R)—N-(1-Methylpiperidin-3-yl)-1-(2-(2,2,2-trifluoroethyl)-4-(trifluoromethyl)-phenyl)pyrido[3,4-d]pyridazin-4-amine], less than 0.001 µM. Consider `Oc1cc(C(F)(F)F)ccc1-c1nnc(N[C@@H]2CCCN(C3CC3)C2)c2cnccc12` [Compound I-215, 2-[4-[[(3R)-1-cyclopropyl-3-piperidyl]amino]pyrido[3,4-d]pyridazin-1-yl]-5-(trifluoromethyl)phenol], for which the IC50 is less than 0.001 µM. Turning to `Cc1ccc(-c2nnc(N[C@@H]3CCCN(C)C3)c3cnccc23)c(C)c1` [Compound I-216], the IC50 lay within 0.001 to 0.01 µM.

For `Cc1cc(C#N)ccc1-c1nnc(N[C@@H]2CCCN(C)C2)c2cnccc12` [Compound I-217], the IC50 lay in the range of 0.01 to 0.1 µM. As for `Cc1cc(Cl)cc(C)c1-c1nnc(N[C@@H]2CCCN(C)C2)c2cnccc12` [Compound I-218], the IC50 was less than 0.001 µM. Same read-out and setting: in the case of `O=C(c1ccc(-c2nnc(N[C@@H]3CCCNC3)c3ccccc23)c(O)c1)C(F)(F)F` [Compound I-220] it was 0.1 to 0.3 µM; in that of `CN1CCC[C@@H](Nc2nnc(-c3c(F)cc(Cl)cc3F)c3ccncc23)C1` [Compound I-221], 0.001 to 0.01 µM. The same measure, in the same setting: in the case of `Cc1cc(C(F)(F)F)cc(F)c1-c1nnc(N[C@@H]2CCCN(C)C2)c2cnccc12` [Compound I-222] it was 0.001 to 0.01 µM.

Consider `CN1CCC(Nc2nnc(-c3ccc(C(F)(F)F)cc3O)c3ccncc23)CC1` [Compound I-224], for which the IC50 is 0.01 to 0.1 µM.

As to `C#Cc1ccc(-c2nnc(N[C@@H]3CCCN(C)C3)c3ccccc23)c(O)c1` [Compound I-226, (R)-5-ethynyl-2-(4-((1-methylpiperidin-3-yl)amino)phthalazin-1-yl)phenol], the half-inhibitory concentration (IC50) is less than 0.001 µM. Consider `CC#Cc1ccc(-c2nnc(N[C@@H]3CCCN(C)C3)c3ccccc23)c(O)c1` [Compound I-227], for which the IC50 was less than 0.001 µM.

On to `CC#Cc1cc(C(F)(F)F)ccc1-c1nnc(N[C@@H]2CCCN(C)C2)c2cnccc12` [Compound I-228, (R)—N-(1-methylpiperidin-3-yl)-1-(2-(prop-1-yn-1-yl)-4-(trifluoromethyl)phenyl)pyrido[3,4-d]pyridazin-4-amine], for which the IC50 was 0.001 to 0.01 µM. With `Oc1cc(C(F)(F)F)ccc1-c1nnc(NC2CNCCOC2)c2ccncc12` (stereo not shown) [Compound I-230], the IC50 was 0.01 to 0.1 µM.

With `FC(F)Oc1cc(C(F)(F)F)ccc1-c1nnc(N[C@@H]2CCCNC2)c2ccncc12` [Compound I-231], the IC50 was 0.01 to 0.1 µM. Take `CN1CCC[C@@H](Nc2nnc(-c3ccc(C(F)(F)F)cc3-c3ccn(C)n3)c3ccncc23)C1` [Compound I-232]: the IC50 is 0.01 to 0.1 µM. Still for that read-out and setting: with `COc1cc(C(F)F)ccc1-c1nnc(N[C@@H]2CCCN(C)C2)c2cnccc12` [Compound I-234] the figure was 0.01 to 0.1 µM.

On to `CCN1CCC[C@@H](Nc2nnc(-c3ccc(C(F)(F)F)cc3OC(F)F)c3cnccc23)C1` [Compound I-235], for which the IC50 lay in the range of 0.001 to 0.01 µM. For `CN1CCC[C@@H](Nc2nnc(-c3ccc(C(F)(F)F)cc3OC(F)F)c3c2CCC3)C1` [Compound I-236], the IC50 lay within 0.001 to 0.01 µM.

For `CN1CCC[C@@H](Nc2nnc(-c3ccc(OC4CC4)cc3O)c3ccncc23)C1` [Compound I-237, (R)-5-Cyclopropoxy-2-(4-((1-methylpiperidin-3-yl)amino)pyrido[3,4-d]pyridazin-1-yl)phenol], the IC50 was in the range of 0.001 to 0.01 µM. The same measure, in the same setting: in the case of `OCCN1CCC[C@@H](Nc2nnc(-c3ccc(C(F)(F)F)cc3OC(F)F)c3cnccc23)C1` [Compound I-238] it was 0.01 to 0.1 µM; in that of `CN1CCC[C@@H](Nc2nnc(-c3ccc(Cl)cc3C(F)F)c3ccncc23)C1` [Compound I-239], 0.001 to 0.01 µM. Consider `CN1CCC[C@@H](Nc2nnc(-c3ccc(C(F)(F)F)cc3-c3cccnc3)c3ccncc23)C1` [Compound I-240], for which the IC50 lay in the range of 0.1 to 0.3 µM.

As for `CN1CCC[C@@H](Nc2nnc(-c3ccc(Cl)cc3OC(F)F)c3c2CCC3)C1` [Compound I-241], the IC50 fell in the range of 0.01 to 0.1 µM. Still for that read-out and setting: with `CN1CCCCC1CNc1nnc(-c2ccc(C(F)(F)F)cc2O)c2ccncc12` (stereo not shown) [Compound I-243] the figure was 0.001 to 0.01 µM; with `Cc1ccc(-c2nnc(N[C@@H]3CCCN(C)C3)c3c2CCC3)c(OC(F)F)c1` [Compound I-244], 0.01 to 0.1 µM. On to `CN1CCC[C@@H](Nc2nnc(-c3ccccc3OC(F)F)c3c2CCC3)C1` [Compound I-245], for which the IC50 lay in the range of 0.001 to 0.01 µM. Turning to `CN1CCC[C@@H](Nc2nnc(-c3ccc(C4CC4)cc3OC(F)F)c3c2CCC3)C1` [Compound I-246], the IC50 is 0.01 to 0.1 µM. Same read-out and setting: in the case of `CN1CCC[C@@H](Nc2nnc(-c3ccc(C4CC4)cc3OC(F)F)c3ccncc23)C1` [Compound I-247] it was 0.001 to 0.01 µM. In the case of `CN1CCC[C@@H](Nc2nnc(-c3ccc(C4CC4)cc3C(F)F)c3ccncc23)C1` [Compound I-248], the IC50 was in the range of 0.001 to 0.01 µM. The same measure, in the same setting: in the case of `CN1CCC[C@@H](Nc2nnc(-c3ccc(C(F)F)cc3F)c3ccncc23)C1` [Compound I-249] it was 0.01 to 0.1 µM. For the compound `CN1CCC[C@@H](Nc2nnc(-c3ccc(C(F)(F)F)cc3O)c3cscc23)C1` [Compound I-250], the IC50 is less than 0.001 µM. In the case of `COc1cc(C(F)(F)F)ccc1-c1nnc(N[C@@H]2CCCCNC2)c2cnccc12` [Compound I-251], the IC50 was 0.1 to 0.3 µM.

Staying with this assay, now noted: THP-1 cells, 100 ng/mL PMA 24 h, compound 20 h, 2.5 μM Nigericin 3 h; read-out: IC50 IL-1β Inhibition.
Regarding `CN1CCC[C@@H](Nc2nnc(-c3c(F)ccc(Cl)c3O)c3ccncc23)C1` [Compound I-209], the concentration for half-maximal inhibition (IC50) is 0.001 to 0.01 µM. Turning to `CN1CCC[C@@H](Nc2nnc(-c3c(F)ccc(Cl)c3O)c3ccncc23)C1` [Compound I-211], the IC50 was 0.01 to 0.1 µM.
